These results are taken from PubChem BioAssay (NCI).

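The compound was tested at five concentrations on cells cultured in 96-well plates, with a 48-hour exposure period. GI50 = concentration required for 50% inhibition of growth. The concentration for full growth arrest is given as TGI.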 A value given as a limit tells only on which side of the number the result lay.

For the first test, the system named is SW-620 colon. Kind of test: growth of human tumour cells (NCI), 48 h.
`COc1cc(NC(C)CCCNC2CN3CCC2CC3)c2ncccc2c1` (stereo not given): the GI50 is 11.9 µM and the TGI came out at 27.6 µM.
Take `COc1ccc(C(=O)c2cc(OC)c(OC)c(OC)c2)cc1OC(=O)CCl`: the GI50 was < 0.0208 µM and the TGI was > 100 µM.
For `CN[C@@H](C)C(=O)N[C@H](C(=O)N1CCC[C@H]1C(=O)Nc1snnc1-c1ccccc1)C1CCCCC1` the same measures were > 100 µM and > 100 µM.
The matching figures for `CC(C)(C)OC(=O)N1CCN(CCn2cc(C(F)(F)F)c3c(Cl)ncnc32)CC1`: 2.2 µM and 4.64 µM.
The matching figures for `FC(F)(F)c1ccc(Nc2nc(-c3c(C(F)(F)F)nc4ccccn34)cs2)cc1`: 0.0373 µM and 12.3 µM.
With `Cc1ccc(Nc2n[nH]c(=S)s2)cc1C`, the TGI was > 100 µM.
For the compound `CN(C)CCN1C(=O)c2ccccc2N(C)c2ccccc21`, the GI50 was > 100 µM and the TGI was > 100 µM.
With `COc1cc([N+](=O)[O-])c(OC)cc1-c1nc2sc(Cl)cn2c1/C(N)=N/C(=N)N`, the GI50 was 2.15 µM and the TGI is 4.63 µM.
The matching figures for `O=[N+]([O-])O.[Cu+2].[NH-]CC[NH-].[NH-]CC[NH-]`: > 10 µM and > 10 µM.
For `Cc1nn2c(/C=C3\C(=O)Nc4ccc(Cl)cc43)c(C)nc2s1` the same measures were 23.4 µM and > 100 µM.
The matching figures for `COc1ccc(C(=O)OC2C(OC3C(O)COC(O[C@H]4C[C@H]5[C@@H]6CC=C7C[C@@H](O)CC[C@]7(C)[C@H]6CC[C@]5(C)[C@H]4[C@H](C)C(=O)CCC(C)C)C3OC(N)=O)OCC(O)C2O)cc1` (stereo not given in full): 0.0183 µM and 0.429 µM.
Regarding `c1ccc2[nH]c(-c3ccc(-c4nccc5c4[nH]c4ccccc45)cc3)nc2c1`, the GI50 was 2.79 µM and the TGI came to 8.48 µM.
The matching figures for `COC(=O)c1nc(-c2ccccc2)oc1S(=O)(=O)Cc1ccccc1`: 2.05 µM and 4.14 µM.

A further test has as its system HCT-116 colon. Kind of test: growth of human tumour cells (NCI), 48 h.
Turning to `COc1cc(NC(C)CCCNC2CN3CCC2CC3)c2ncccc2c1` (stereo not given), the GI50 was 3.75 µM and the TGI is 13.9 µM.
The matching figures for `COc1ccc(C(=O)c2cc(OC)c(OC)c(OC)c2)cc1OC(=O)CCl`: 0.0205 µM and > 100 µM.
As for `CN[C@@H](C)C(=O)N[C@H](C(=O)N1CCC[C@H]1C(=O)Nc1snnc1-c1ccccc1)C1CCCCC1`, the GI50 was 41.6 µM and the TGI is > 100 µM.
The matching figures for `CC(C)(C)OC(=O)N1CCN(CCn2cc(C(F)(F)F)c3c(Cl)ncnc32)CC1`: 1.68 µM and 3.15 µM.
As to `FC(F)(F)c1ccc(Nc2nc(-c3c(C(F)(F)F)nc4ccccn34)cs2)cc1`, the GI50 was 0.0426 µM and the TGI is 2.38 µM.
On to `Cc1ccc(Nc2n[nH]c(=S)s2)cc1C`, for which the TGI was > 100 µM.
Take `CN(C)CCN1C(=O)c2ccccc2N(C)c2ccccc21`: the GI50 is > 100 µM and the TGI is > 100 µM.
As to `COc1cc([N+](=O)[O-])c(OC)cc1-c1nc2sc(Cl)cn2c1/C(N)=N/C(=N)N`, the GI50 is 2.41 µM and the TGI was found to be 6.41 µM.
The matching figures for `O=[N+]([O-])O.[Cu+2].[NH-]CC[NH-].[NH-]CC[NH-]`: > 10 µM and > 10 µM.
For `Cc1nn2c(/C=C3\C(=O)Nc4ccc(Cl)cc43)c(C)nc2s1` the same measures were 30.2 µM and > 100 µM.
For `COc1ccc(C(=O)OC2C(OC3C(O)COC(O[C@H]4C[C@H]5[C@@H]6CC=C7C[C@@H](O)CC[C@]7(C)[C@H]6CC[C@]5(C)[C@H]4[C@H](C)C(=O)CCC(C)C)C3OC(N)=O)OCC(O)C2O)cc1` (stereo not given in full) the same measures were 0.0198 µM and 3.56 µM.
Regarding `c1ccc2[nH]c(-c3ccc(-c4nccc5c4[nH]c4ccccc45)cc3)nc2c1`, the GI50 was 2.83 µM and the TGI was 10.4 µM.
With `COC(=O)c1nc(-c2ccccc2)oc1S(=O)(=O)Cc1ccccc1`, the GI50 is 2.58 µM and the TGI amounted to 6.23 µM.

For the next test, the system named is OVCAR-5 ovarian. Kind of test: growth of human tumour cells (NCI), 48 h.
On to `COc1cc(NC(C)CCCNC2CN3CCC2CC3)c2ncccc2c1` (stereo not given), for which the GI50 is 14.5 µM and the TGI came out at 28.3 µM.
Consider `COc1ccc(C(=O)c2cc(OC)c(OC)c(OC)c2)cc1OC(=O)CCl`, for which the GI50 was 3.61 µM and the TGI is > 100 µM.
For `CN[C@@H](C)C(=O)N[C@H](C(=O)N1CCC[C@H]1C(=O)Nc1snnc1-c1ccccc1)C1CCCCC1` the same measures were > 100 µM and > 100 µM.
For `CC(C)(C)OC(=O)N1CCN(CCn2cc(C(F)(F)F)c3c(Cl)ncnc32)CC1` the same measures were 17.1 µM and 38.7 µM.
The matching figures for `FC(F)(F)c1ccc(Nc2nc(-c3c(C(F)(F)F)nc4ccccn34)cs2)cc1`: 0.476 µM and 16.5 µM.
On to `Cc1ccc(Nc2n[nH]c(=S)s2)cc1C`, for which the TGI is > 100 µM.
Consider `CN(C)CCN1C(=O)c2ccccc2N(C)c2ccccc21`, for which the GI50 was > 100 µM and the TGI is > 100 µM.
For the compound `COc1cc([N+](=O)[O-])c(OC)cc1-c1nc2sc(Cl)cn2c1/C(N)=N/C(=N)N`, the GI50 was 19.7 µM and the TGI worked out at 45.4 µM.
The matching figures for `O=[N+]([O-])O.[Cu+2].[NH-]CC[NH-].[NH-]CC[NH-]`: > 10 µM and > 10 µM.
In the case of `Cc1nn2c(/C=C3\C(=O)Nc4ccc(Cl)cc43)c(C)nc2s1`, the GI50 is > 100 µM and the TGI is > 100 µM.
On to `COc1ccc(C(=O)OC2C(OC3C(O)COC(O[C@H]4C[C@H]5[C@@H]6CC=C7C[C@@H](O)CC[C@]7(C)[C@H]6CC[C@]5(C)[C@H]4[C@H](C)C(=O)CCC(C)C)C3OC(N)=O)OCC(O)C2O)cc1` (stereo not given in full), for which the GI50 is 0.555 µM and the TGI was found to be 6.48 µM.
`c1ccc2[nH]c(-c3ccc(-c4nccc5c4[nH]c4ccccc45)cc3)nc2c1`: the GI50 is 2.43 µM and the TGI was 6.47 µM.
For `COC(=O)c1nc(-c2ccccc2)oc1S(=O)(=O)Cc1ccccc1`, the GI50 is 3.12 µM and the TGI was 11.3 µM.

A further test deals with SNB-19 CNS. Kind of test: growth of human tumour cells (NCI), 48 h.
As for `COc1cc(NC(C)CCCNC2CN3CCC2CC3)c2ncccc2c1` (stereo not given), the GI50 is 15.8 µM and the TGI turned out to be 32 µM.
The matching figures for `COc1ccc(C(=O)c2cc(OC)c(OC)c(OC)c2)cc1OC(=O)CCl`: < 0.0283 µM and > 100 µM.
For `CN[C@@H](C)C(=O)N[C@H](C(=O)N1CCC[C@H]1C(=O)Nc1snnc1-c1ccccc1)C1CCCCC1` the same measures were > 100 µM and > 100 µM.
The matching figures for `CC(C)(C)OC(=O)N1CCN(CCn2cc(C(F)(F)F)c3c(Cl)ncnc32)CC1`: 2 µM and 3.72 µM.
Take `FC(F)(F)c1ccc(Nc2nc(-c3c(C(F)(F)F)nc4ccccn34)cs2)cc1`: the GI50 was 0.0625 µM and the TGI came out at 18.5 µM.
`Cc1ccc(Nc2n[nH]c(=S)s2)cc1C`: the TGI is > 100 µM.
As for `CN(C)CCN1C(=O)c2ccccc2N(C)c2ccccc21`, the GI50 was > 100 µM and the TGI was > 100 µM.
As to `COc1cc([N+](=O)[O-])c(OC)cc1-c1nc2sc(Cl)cn2c1/C(N)=N/C(=N)N`, the GI50 is 3.91 µM and the TGI is > 100 µM.
For `O=[N+]([O-])O.[Cu+2].[NH-]CC[NH-].[NH-]CC[NH-]` the same measures were > 10 µM and > 10 µM.
Turning to `Cc1nn2c(/C=C3\C(=O)Nc4ccc(Cl)cc43)c(C)nc2s1`, the GI50 was 26.9 µM and the TGI was > 100 µM.
For `COc1ccc(C(=O)OC2C(OC3C(O)COC(O[C@H]4C[C@H]5[C@@H]6CC=C7C[C@@H](O)CC[C@]7(C)[C@H]6CC[C@]5(C)[C@H]4[C@H](C)C(=O)CCC(C)C)C3OC(N)=O)OCC(O)C2O)cc1` (stereo not given in full) the same measures were 0.381 µM and 3.2 µM.
The matching figures for `c1ccc2[nH]c(-c3ccc(-c4nccc5c4[nH]c4ccccc45)cc3)nc2c1`: 4.21 µM and 30.4 µM.
As to `COC(=O)c1nc(-c2ccccc2)oc1S(=O)(=O)Cc1ccccc1`, the GI50 is 16.3 µM and the TGI is 31.3 µM.
